For test [1], the target named is T1, Muscarinic acetylcholine receptor M2 (Homo sapiens, UniProt P08172).
T1 sequence (P08172 whole entry): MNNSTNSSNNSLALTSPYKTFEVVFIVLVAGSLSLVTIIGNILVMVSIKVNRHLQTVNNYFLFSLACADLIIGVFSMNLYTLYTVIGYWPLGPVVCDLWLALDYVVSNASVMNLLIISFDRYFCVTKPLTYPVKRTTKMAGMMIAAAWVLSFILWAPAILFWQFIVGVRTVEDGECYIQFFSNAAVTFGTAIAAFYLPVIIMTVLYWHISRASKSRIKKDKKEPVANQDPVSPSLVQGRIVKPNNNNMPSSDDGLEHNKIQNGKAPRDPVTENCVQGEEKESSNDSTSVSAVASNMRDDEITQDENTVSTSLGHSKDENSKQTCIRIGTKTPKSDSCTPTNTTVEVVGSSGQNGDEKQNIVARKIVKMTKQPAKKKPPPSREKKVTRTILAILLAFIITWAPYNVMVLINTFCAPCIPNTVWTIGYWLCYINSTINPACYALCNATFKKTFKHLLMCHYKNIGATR

The next test has as its target D(1A) dopamine receptor (Homo sapiens, UniProt P21728).
In test [2] the target is 5-hydroxytryptamine receptor 1D (Homo sapiens, UniProt P28221).
Test [3] deals with Beta-2 adrenergic receptor (Homo sapiens, UniProt P07550).
For test [4], the target named is T2, Gamma-aminobutyric acid receptor subunit alpha-1 (Homo sapiens, UniProt P14867).
T2 sequence (P14867 whole entry): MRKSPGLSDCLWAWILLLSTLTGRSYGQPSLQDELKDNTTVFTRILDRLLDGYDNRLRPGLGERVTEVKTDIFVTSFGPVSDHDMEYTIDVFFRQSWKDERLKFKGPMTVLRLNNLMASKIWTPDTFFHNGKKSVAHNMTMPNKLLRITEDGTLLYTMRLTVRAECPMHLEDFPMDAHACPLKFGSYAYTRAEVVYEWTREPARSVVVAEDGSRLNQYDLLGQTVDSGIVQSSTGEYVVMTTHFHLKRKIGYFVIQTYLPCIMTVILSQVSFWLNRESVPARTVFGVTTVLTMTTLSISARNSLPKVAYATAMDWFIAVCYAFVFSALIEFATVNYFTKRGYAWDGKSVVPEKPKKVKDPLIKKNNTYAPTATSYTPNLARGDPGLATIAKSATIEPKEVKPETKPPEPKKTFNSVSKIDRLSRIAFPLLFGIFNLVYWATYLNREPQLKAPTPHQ

Test [5] concerns the target T3, Solute carrier family 22 member 1 (Homo sapiens, UniProt O15245).
T3 sequence (O15245 whole entry): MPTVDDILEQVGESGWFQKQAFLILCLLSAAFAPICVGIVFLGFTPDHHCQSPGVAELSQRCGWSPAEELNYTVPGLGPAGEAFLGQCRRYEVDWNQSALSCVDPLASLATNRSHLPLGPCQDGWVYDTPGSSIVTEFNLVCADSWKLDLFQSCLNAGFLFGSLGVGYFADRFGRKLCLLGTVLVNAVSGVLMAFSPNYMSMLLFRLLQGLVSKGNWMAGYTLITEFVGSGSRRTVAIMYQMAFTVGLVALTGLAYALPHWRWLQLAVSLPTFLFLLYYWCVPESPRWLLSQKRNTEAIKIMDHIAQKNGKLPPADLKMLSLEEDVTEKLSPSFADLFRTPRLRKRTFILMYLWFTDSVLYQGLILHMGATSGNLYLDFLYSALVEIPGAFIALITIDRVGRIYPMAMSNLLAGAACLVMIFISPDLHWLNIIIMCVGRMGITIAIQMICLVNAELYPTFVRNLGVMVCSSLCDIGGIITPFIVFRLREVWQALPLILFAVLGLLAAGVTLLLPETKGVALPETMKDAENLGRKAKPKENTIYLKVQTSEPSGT

For test [6], the target named is T4, 5-hydroxytryptamine receptor 1A (Homo sapiens, UniProt P08908).
T4 sequence (P08908 whole entry): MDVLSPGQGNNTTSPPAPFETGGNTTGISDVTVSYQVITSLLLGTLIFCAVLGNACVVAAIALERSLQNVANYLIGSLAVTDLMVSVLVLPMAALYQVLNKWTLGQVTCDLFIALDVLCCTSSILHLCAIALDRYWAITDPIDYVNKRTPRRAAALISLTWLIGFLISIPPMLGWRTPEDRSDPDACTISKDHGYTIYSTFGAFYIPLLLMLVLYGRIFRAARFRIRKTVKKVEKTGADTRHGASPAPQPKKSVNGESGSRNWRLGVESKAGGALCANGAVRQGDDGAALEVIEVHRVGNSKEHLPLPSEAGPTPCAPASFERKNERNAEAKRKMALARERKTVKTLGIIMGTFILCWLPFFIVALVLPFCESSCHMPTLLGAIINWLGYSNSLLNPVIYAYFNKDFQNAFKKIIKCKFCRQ

Test [7] deals with T5, Alpha-2A adrenergic receptor (Homo sapiens, UniProt P08913).
T5 sequence (P08913 whole entry): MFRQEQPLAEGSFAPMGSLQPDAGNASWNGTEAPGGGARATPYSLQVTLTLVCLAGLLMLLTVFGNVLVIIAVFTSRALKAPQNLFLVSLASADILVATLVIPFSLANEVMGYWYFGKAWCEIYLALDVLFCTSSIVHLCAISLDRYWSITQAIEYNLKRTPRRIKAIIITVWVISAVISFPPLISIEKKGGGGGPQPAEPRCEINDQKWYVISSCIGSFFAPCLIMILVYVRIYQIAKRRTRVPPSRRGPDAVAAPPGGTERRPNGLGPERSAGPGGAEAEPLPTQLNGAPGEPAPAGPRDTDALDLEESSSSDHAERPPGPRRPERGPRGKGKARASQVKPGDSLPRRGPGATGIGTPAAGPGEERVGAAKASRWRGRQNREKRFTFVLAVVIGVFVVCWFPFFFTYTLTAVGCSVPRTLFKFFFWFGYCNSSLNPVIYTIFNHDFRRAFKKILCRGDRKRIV

The target in a further test is D(2) dopamine receptor (Homo sapiens, UniProt P14416).

1 molecule from BindingDB's records for doi:10.1016/0006-3223(89)90217-5 (Stanford University, 1989) can be followed below.

The term Ki denotes a measure of affinity in units of concentration, obtained from inhibition or displacement. A low value points to a stronger hold on the target.

D(2) dopamine receptor, sequence (P14416 whole entry): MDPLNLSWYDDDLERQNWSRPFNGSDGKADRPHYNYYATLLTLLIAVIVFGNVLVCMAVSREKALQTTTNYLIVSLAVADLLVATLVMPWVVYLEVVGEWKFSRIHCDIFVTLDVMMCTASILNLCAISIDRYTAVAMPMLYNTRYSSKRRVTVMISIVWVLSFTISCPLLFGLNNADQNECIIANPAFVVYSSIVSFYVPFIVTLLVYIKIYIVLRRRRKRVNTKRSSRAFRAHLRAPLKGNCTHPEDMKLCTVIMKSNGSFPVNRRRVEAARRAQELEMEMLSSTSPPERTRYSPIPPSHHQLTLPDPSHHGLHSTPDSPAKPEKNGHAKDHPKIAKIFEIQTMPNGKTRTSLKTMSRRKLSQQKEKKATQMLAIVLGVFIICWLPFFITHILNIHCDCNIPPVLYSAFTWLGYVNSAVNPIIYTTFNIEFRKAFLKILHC
Beta-2 adrenergic receptor, sequence (P07550 whole entry): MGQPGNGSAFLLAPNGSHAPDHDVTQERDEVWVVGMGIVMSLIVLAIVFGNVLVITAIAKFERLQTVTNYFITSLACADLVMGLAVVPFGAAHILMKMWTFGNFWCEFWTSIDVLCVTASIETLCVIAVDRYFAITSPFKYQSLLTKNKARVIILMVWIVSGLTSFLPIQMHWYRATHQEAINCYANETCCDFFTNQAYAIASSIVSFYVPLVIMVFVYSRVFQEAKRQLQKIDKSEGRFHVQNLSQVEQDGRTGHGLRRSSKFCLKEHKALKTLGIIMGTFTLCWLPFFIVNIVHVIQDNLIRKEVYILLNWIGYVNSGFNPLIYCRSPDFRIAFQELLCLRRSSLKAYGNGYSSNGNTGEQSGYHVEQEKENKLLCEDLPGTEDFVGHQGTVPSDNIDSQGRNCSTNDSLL
D(1A) dopamine receptor, sequence (P21728 whole entry): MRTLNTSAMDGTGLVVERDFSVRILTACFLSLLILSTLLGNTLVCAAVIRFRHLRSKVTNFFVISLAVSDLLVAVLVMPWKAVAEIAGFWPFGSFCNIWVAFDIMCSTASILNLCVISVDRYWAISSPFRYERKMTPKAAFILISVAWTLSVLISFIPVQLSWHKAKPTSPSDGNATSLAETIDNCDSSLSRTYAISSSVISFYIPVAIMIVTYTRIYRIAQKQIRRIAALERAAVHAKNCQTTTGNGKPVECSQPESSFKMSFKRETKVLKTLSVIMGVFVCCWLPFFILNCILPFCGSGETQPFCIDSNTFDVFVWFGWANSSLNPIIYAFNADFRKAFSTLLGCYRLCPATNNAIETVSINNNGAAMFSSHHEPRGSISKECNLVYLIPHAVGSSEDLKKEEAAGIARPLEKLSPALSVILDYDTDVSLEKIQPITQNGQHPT
5-hydroxytryptamine receptor 1D, sequence (P28221 whole entry): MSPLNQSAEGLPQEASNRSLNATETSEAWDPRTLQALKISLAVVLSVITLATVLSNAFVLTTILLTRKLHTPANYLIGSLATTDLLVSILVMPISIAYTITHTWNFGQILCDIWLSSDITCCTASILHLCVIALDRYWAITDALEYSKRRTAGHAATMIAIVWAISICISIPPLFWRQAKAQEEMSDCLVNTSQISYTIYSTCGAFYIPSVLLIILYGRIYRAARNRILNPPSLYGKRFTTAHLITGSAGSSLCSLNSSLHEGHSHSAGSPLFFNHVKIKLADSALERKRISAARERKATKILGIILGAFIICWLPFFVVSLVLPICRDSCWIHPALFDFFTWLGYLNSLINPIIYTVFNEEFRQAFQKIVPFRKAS

In the case of `Clc1cccc(N2CCNCC2)c1` [mCPP], the Ki is over 10 µM in test [1]; 7 µM on D(1A) dopamine receptor; 1300 nM in test [2]; 2500 nM in test [3]; over 10 µM in test [4]; 2900 nM in test [5]. Further, the inhibition constant Ki was 400 nM in test [6], 570 nM in [7] and over 10 µM at D(2) dopamine receptor.
